# Laboratory results: PMC11530130, “Peripherally restricted PICK1 inhibitor mPD5 ameliorates pain behaviors in murine inflammatory and neuropathic pain models” (JCI Insight, 2024)
# What was measured:
# [1] = target: T1, recombinant full-length PICK1 (Rattus norvegicus, UniProt Q9EP80); experiment: SEC of recombinant PICK1 in absence or presence of mPD5; type: binding; conditions: PICK1 40 μM with mPD5 10 μM; from 10.9 mL to 2 peaks at 8 mL and 9 mL
# T1 construct: Full length rat PICK1 (pET41) was, as described earlier (1), expressed in BL21-DE3-pLysS; inferred from the pET41 vector and the glutathione-Sepharose capture) (N, cleaved yes); made in house; host or cells: E. coli BL21-DE3-pLysS
# T1 sequence (Q9EP80 whole entry): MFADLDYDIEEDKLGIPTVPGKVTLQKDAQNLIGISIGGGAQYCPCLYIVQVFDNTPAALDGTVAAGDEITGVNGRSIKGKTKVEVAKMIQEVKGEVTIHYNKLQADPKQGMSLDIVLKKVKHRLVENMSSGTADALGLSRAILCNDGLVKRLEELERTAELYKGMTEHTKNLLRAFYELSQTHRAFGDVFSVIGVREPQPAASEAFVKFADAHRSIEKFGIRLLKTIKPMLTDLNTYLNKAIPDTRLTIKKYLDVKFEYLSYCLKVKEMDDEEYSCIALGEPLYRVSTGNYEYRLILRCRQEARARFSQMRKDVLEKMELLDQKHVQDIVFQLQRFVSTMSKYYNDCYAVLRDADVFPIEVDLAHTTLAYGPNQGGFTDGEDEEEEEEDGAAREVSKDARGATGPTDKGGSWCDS
# Experimental: SUPPORTING INFORMATION: Method Section.
# Sex as a biological variable.
# All peptides were ordered from WuXI AppTec (Shanghai, China) or TAG-Copenhagen […]
# Assessment of solubility and stability of mPD5.
# Solubility was determined by visual inspection of samples dissolved in increasing concentration in 10 mM PBS as judged by full transparency and monophasic appearance.
# Stability was addressed by […] for four concentrations (2, 20, 50, and 200 µM), by leaving mPD5 in PBS at 5 °C and 25 °C for 30 days followed by HPLC-UV-MS.
# Protein expression and purification.
# Full length rat PICK1 (pET41) was, as described earlier (1), expressed in BL21-DE3-pLysS and grown at 37 °C, induced at OD600= 0.6 with 1 mM IPTG, and grown for 16 hours at 20 °C.
# Cultures were harvested and re-suspended in 50 mM Tris, 125 mM NaCl, 2 mM DTT (Sigma), 1% Triton X-100 (Sigma), 20 µg/mL DNAse 1 and half a tablet of cOmplete protease inhibitor cocktail (Roche) pr. 1 L culture. The resuspended pellets were frozen at -80 °C for later purification. […] PICK1 was eluted on ice and concentration was measured on a NanoDrop 3000.
# Fluorescence polarization binding. […]
# binding surface 96 well plates (Sigma-Aldrich, Ref. no. 3686). The plates were incubated 20 min on ice and the fluorescence polarization was measured on an Omega POLARstar plate reader (BMG LABTECH) using excitation filter of 485 nm and long pass emission filter of 520 nm. […]
# [2] = Mass spectrometry biodistribution (plasma, CSF, spinal cord, brain); type: in vivo, mouse
# Experimental: K2 tubes at 5 min, 30 min, 1 hour, 5 hours, 12 hours, 24 hours, and 48 hours and centrifuged (app 4 ℃, 3200 g, 10 min) for collection of plasma. Plasma was transferred to 96 well plates and quick-frozen over dry ice and kept at -60 ℃ until LC-MS/MS analysis. For LC-MS/MS analysis plasma with 0.25% Triton X100 in 50% MeOH/water (6 µL) was quenched with 160 µL of IS1 (internal standard in MeOH (Labetalol & tolbutamide & Verapamil & dexamethasone & glyburide & Celecoxib 100 ng/mL for each)) and the mixture was vortexed for 10 min at 800 rpm and centrifuged for 15 min at 3220 × g at 4 ℃. […] Plasma half-lives were determined from three points in the elimination phase. In a separate experiment, biodistribution was assessed (plasma, CSF, spinal cord, whole brain) at two hours after single dose of 10 µmol/kg or one hour after last injection in the repeated administration paradigm (10 µmol/kg followed by four s.c. administrations of 2 µmol/kg with one hour between). […] Plasma, CSF, and tissue samples (kept at 4 ℃) were processed and analysed as described above.
# Concentration 10 µmol/kg: Wild type mice were habituated to the experimental room for a minimum of 60 min before initiation of the experiment. […] A video camera placed above the open field recorded the animals’ behaviour and Ethovision XT 13 (Noldus) was used to track the distance travelled by the […]
compound,measurement,setting,value
"CCCCCCCCCCCCCC(=O)N(CCOCCOCCC(=O)N[C@@H](Cc1c[nH]cn1)C(=O)N[C@@H](Cc1c[nH]c2ccccc12)C(=O)N[C@@H](CC(C)C)C(=O)N[C@@H](CCCCN)C(=O)N[C@H](C(=O)O)C(C)C)CCOCCOCCC(=O)N[C@@H](Cc1c[nH]cn1)C(=O)N[C@@H](Cc1c[nH]c2ccccc12)C(=O)N[C@@H](CC(C)C)C(=O)N[C@@H](CCCCN)C(=O)N[C@H](C(=O)O)C(C)C [mPD5, myristoyl-NPEG4-(HWLKV)2]",shift of PICK1 SEC elution (higher-order complexes),[1],distinct shift in the peak elution volume of PICK1
same,level at 1 h,"[2]; C57BL/6NRj, mouse, plasma, sc, 10 umol/kg, 1 hour after s.c. 10 μmol/kg, LLOQ = 2 ng/mL, n = 3",3.28 ± 0.615 µg/mL
same,"detection in CSF, spinal cord, and brain tissue by mass spectrometry",[2]; after s.c. injection in mice,did not detect
